Calls of active or inactive are those of the source. The rule behind the calls is not given here.
Tests used:
C-33-A = test: Antiproliferative activity against human C-33-A cells assessed as inhibition of cell growth incubated for 72 hrs by celltiter-glo assay; assay type: functional, cell-based
MDA-MB-435 = test: Antiproliferative activity against human MDA-MB-435 cells assessed as inhibition of cell growth incubated for 72 hrs by celltiter-glo assay; assay type: functional, cell-based; conditions: MDA-MB-435, 72 h
SR = test: Antiproliferative activity against human SR cells assessed as inhibition of cell growth incubated for 72 hrs by celltiter-glo assay; assay type: functional, cell-based
HeLa [1] = test: Inhibition of cdc20-MAD2 protein-protein interaction in human nocodazole arrested HeLa cells by Coimmunoprecipitation analysis; assay type: cell-based
IGROV-1 = test: Antiproliferative activity against human IGROV-1 cells assessed as inhibition of cell growth incubated for 72 hrs by celltiter-glo assay; assay type: functional, cell-based; conditions: IGROV-1, 72 h
[2] = target: Serine/threonine-protein kinase haspin (Homo sapiens, UniProt Q8TF76); test: Inhibition of recombinant Haspin (unknown origin)
[3] = Antiproliferative activity against human DERL-7 cells assessed as inhibition of cell growth incubated for 72 hrs by celltiter-glo assay; assay type: functional, cell-based; conditions: DERL7, 72 h
NCI-H929 = test: Antiproliferative activity against human NCI-H929 cells assessed as inhibition of cell growth incubated for 72 hrs by celltiter-glo assay; assay type: functional, cell-based; conditions: NCI-H929, 72 h
[4] = AUC in Athymic nu-nu mouse at 10 mg/kg, iv measured upto 24 hrs by LC-MS/MS analysis; assay type: ADME, organism-based; conditions: in vivo
[5] = target: Mast/stem cell growth factor receptor Kit (Homo sapiens, UniProt P10721); test: Inhibition of recombinant KIT (unknown origin)
NCI-H1975 = test: Antiproliferative activity against human NCI-H1975 cells assessed as inhibition of cell growth incubated for 72 hrs by celltiter-glo assay; assay type: functional, cell-based; conditions: NCI-H1975, 72 h
TK-10 = test: Antiproliferative activity against human TK-10 cells assessed as inhibition of cell growth incubated for 72 hrs by celltiter-glo assay; assay type: functional, cell-based; conditions: TK-10, 72 h
[6] = target: MAP kinase-interacting serine/threonine-protein kinase 2 (Homo sapiens, UniProt Q9HBH9); test: Inhibition of recombinant MNK2 (unknown origin)
SW48 = test: Antiproliferative activity against human SW48 cells assessed as inhibition of cell growth incubated for 72 hrs by celltiter-glo assay; assay type: functional, cell-based; conditions: SW48, 72 h
A2780 [7] = test: Cell cycle arrest in human A2780 cells assessed as accumulation of cells at G1 phase at 0.2 to 1 micromol/L incubated for 24 hrs by FACS/PI staining based flow cytometric analysis; assay type: functional; conditions: dose 0.2-1 µmol/L
BT-474 = test: Antiproliferative activity against human BT-474 cells assessed as inhibition of cell growth incubated for 72 hrs by celltiter-glo assay; assay type: functional, cell-based; conditions: BT-474, 72 h
[8] = target: Serine/threonine-protein kinase 26 (Homo sapiens, UniProt Q9P289); test: Inhibition of recombinant MST4 (unknown origin)
BT-549 = test: Antiproliferative activity against human BT-549 cells assessed as inhibition of cell growth incubated for 72 hrs by celltiter-glo assay; assay type: functional, cell-based; conditions: BT-549, 72 h
SN12C = test: Antiproliferative activity against human SN12C cells assessed as inhibition of cell growth incubated for 72 hrs by celltiter-glo assay; assay type: functional, cell-based
HeLa [9] = test: Inhibition of cdc20-BUB3 protein-protein interaction in human nocodazole arrested HeLa cells by Coimmunoprecipitation analysis; assay type: cell-based
[10] = Inhibition of recombinant AUR2 (unknown origin); parameters: species or system Homo sapiens
COLO 205 = test: Antiproliferative activity against human COLO 205 cells assessed as inhibition of cell growth incubated for 72 hrs by celltiter-glo assay; assay type: functional, cell-based; conditions: COLO 205, 72 h
LP-1 = test: Antiproliferative activity against human LP-1 cells assessed as inhibition of cell growth incubated for 72 hrs by celltiter-glo assay; assay type: functional, cell-based; conditions: LP-1, 72 h
A498 = test: Antiproliferative activity against human A498 cells assessed as inhibition of cell growth incubated for 72 hrs by celltiter-glo assay; assay type: functional, cell-based; conditions: A498, 72 h
[11] = target: Cyclin-dependent kinase 4/cyclin D1 (Homo sapiens, UniProt P11802); test: Inhibition of recombinant CDK4/CYCD1 (unknown origin); assay type: protein-complex assay
MeWo = test: Antiproliferative activity against human MeWo cells assessed as inhibition of cell growth incubated for 72 hrs by celltiter-glo assay; assay type: functional, cell-based
U2OS [12] = test: Induction of mitotic arrest in human U2OS cells expressing YFP alpha-tubulin assessed as chromosome misalignment in metaphase incubated for 1 hr by DAPI staining based confocal microscopic analysis; assay type: functional, cell-based
[13] = target: Cyclin-dependent kinase 5/CDK5 activator 1 (Homo sapiens, UniProt Q00535)
Description: Inhibition of recombinant CDK5/P25 (unknown origin)

U2OS [14] = test: Induction of mitotic arrest in human U2OS cells at 1 micromol/L incubated for 86 hrs by time-lapse microscopic analysis; assay type: functional, cell-based; conditions: dose 1.0 µmol/L
[15] = target: Serine/threonine-protein kinase PLK1 (Homo sapiens, UniProt P53350); test: Inhibition of recombinant PLK1 (unknown origin)
LS174T = test: Antiproliferative activity against human LS174T cells assessed as inhibition of cell growth incubated for 72 hrs by celltiter-glo assay; assay type: functional, cell-based
[16] = target: CDC7/DBF4 (Cell division cycle 7-related protein kinase/Activator of S phase kinase) (Homo sapiens, UniProt O00311); test: Inhibition of recombinant CDC7/DBF4 (unknown origin); assay type: protein-complex assay
MV4-11 = test: Antiproliferative activity against human MV4-11 cells assessed as inhibition of cell growth incubated for 72 hrs by celltiter-glo assay; assay type: functional, cell-based; conditions: MV4-11, 72 h
NCI/ADR-RES = test: Antiproliferative activity against human NCI-ADR-RES cells assessed as inhibition of cell growth incubated for 72 hrs by celltiter-glo assay; assay type: functional, cell-based
SK-MEL-5 = test: Antiproliferative activity against human SK-MEL-5 cells assessed as inhibition of cell growth incubated for 72 hrs by celltiter-glo assay; assay type: functional, cell-based; conditions: SK-MEL-5, 72 h
SNB-75 = test: Antiproliferative activity against human SNB-75 cells assessed as inhibition of cell growth incubated for 72 hrs by celltiter-glo assay; assay type: functional, cell-based; conditions: SNB-75, 72 h
Casein kinase 2 = Casein kinase 2 (Homo sapiens, UniProt P67870+P68400+P19784+Q8NEV1); test: Inhibition of recombinant CK2 (unknown origin); assay type: protein assay
[17] = Antiproliferative activity against human RPMI 8226/ADR cells assessed as inhibition of cell growth incubated for 72 hrs by celltiter-glo assay; assay type: functional, cell-based
ACHN = test: Antiproliferative activity against human ACHN cells assessed as inhibition of cell growth incubated for 72 hrs by celltiter-glo assay; assay type: functional, cell-based
A2780 [18] = test: Induction of apoptosis in human A2780 cells assessed as PARP clevage at 0.2 to 1 micromol/L incubated for 2 to 72 hrs by Western blot analysis; assay type: functional, cell-based; conditions: dose 0.2-1 µmol/L, time 2-72 hrs
[19] = Toxicity in Athymic nu-nu nude mouse xenografted with human A2780 cells assessed as body weight loss at 90 mg/kg, po administered once a day for 7 days; assay type: organism-based; conditions: in vivo, 168 h, time 7 day
OVCAR-3 = test: Antiproliferative activity against human OVCAR-3 cells assessed as inhibition of cell growth incubated for 72 hrs by celltiter-glo assay; assay type: functional, cell-based; conditions: OVCAR-3, 72 h

Chain of Cyclin-dependent kinase 4/cyclin D1 (P11802 whole entry): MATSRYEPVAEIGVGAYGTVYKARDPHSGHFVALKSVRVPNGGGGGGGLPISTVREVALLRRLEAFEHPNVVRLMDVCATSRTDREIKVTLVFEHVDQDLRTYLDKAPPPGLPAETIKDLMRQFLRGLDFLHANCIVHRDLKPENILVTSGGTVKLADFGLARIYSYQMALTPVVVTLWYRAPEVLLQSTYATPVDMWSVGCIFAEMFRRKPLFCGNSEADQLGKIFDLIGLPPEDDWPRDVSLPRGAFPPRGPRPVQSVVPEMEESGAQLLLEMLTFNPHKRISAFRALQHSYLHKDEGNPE
Chain of Cyclin-dependent kinase 4/cyclin D1 (P24385 whole entry, further chain): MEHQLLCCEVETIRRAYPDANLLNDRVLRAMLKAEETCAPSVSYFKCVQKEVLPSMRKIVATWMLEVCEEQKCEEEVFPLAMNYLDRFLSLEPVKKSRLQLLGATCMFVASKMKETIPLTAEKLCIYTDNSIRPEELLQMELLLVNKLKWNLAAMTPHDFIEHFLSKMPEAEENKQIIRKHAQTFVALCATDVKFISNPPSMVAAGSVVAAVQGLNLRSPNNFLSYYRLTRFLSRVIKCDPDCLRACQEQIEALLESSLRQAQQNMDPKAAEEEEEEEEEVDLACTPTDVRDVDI
Chain of Mast/stem cell growth factor receptor Kit (P10721 whole entry): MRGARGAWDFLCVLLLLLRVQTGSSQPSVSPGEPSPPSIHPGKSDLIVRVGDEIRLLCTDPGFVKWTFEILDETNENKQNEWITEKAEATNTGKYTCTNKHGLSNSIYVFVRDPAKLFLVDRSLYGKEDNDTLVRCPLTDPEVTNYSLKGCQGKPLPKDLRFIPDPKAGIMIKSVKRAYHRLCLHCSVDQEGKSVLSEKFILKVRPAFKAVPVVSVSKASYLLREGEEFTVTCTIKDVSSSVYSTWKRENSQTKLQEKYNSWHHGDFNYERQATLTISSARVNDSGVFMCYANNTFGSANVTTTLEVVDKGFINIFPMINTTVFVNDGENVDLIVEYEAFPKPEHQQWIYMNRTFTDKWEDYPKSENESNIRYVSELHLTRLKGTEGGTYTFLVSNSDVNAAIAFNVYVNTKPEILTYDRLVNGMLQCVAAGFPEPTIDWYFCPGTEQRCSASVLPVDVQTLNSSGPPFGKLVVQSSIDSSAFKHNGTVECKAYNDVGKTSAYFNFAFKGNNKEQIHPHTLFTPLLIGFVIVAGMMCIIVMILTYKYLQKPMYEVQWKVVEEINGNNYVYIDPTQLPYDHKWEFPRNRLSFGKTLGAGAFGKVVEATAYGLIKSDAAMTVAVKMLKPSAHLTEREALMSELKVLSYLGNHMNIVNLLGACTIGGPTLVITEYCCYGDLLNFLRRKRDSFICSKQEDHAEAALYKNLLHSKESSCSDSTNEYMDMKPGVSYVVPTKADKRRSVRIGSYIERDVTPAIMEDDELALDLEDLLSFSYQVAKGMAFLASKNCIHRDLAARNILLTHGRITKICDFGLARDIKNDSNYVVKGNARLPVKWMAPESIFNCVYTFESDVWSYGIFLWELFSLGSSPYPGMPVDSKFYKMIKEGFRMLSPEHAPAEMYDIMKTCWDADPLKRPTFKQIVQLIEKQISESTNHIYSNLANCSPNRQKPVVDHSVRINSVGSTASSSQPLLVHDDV
Chain of Cyclin-dependent kinase 5/CDK5 activator 1 (Q00535 whole entry): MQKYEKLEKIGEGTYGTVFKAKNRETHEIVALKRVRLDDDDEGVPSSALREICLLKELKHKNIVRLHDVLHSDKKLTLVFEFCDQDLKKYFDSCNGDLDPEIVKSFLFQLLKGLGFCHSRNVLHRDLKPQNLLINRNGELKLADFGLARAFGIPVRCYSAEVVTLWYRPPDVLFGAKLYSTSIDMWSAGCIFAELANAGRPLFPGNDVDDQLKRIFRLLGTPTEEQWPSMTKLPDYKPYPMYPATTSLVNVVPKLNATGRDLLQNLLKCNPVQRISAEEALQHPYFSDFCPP
Chain of Cyclin-dependent kinase 5/CDK5 activator 1 (Q15078 whole entry, further chain): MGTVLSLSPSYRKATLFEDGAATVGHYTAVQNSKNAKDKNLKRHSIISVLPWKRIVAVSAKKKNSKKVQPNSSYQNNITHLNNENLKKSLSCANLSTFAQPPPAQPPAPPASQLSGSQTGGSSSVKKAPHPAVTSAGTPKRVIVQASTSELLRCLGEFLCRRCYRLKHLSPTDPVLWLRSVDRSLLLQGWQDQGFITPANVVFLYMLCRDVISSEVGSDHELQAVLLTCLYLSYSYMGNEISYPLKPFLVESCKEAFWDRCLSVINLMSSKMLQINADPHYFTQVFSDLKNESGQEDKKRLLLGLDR
Chain of MAP kinase-interacting serine/threonine-protein kinase 2 (Q9HBH9 whole entry): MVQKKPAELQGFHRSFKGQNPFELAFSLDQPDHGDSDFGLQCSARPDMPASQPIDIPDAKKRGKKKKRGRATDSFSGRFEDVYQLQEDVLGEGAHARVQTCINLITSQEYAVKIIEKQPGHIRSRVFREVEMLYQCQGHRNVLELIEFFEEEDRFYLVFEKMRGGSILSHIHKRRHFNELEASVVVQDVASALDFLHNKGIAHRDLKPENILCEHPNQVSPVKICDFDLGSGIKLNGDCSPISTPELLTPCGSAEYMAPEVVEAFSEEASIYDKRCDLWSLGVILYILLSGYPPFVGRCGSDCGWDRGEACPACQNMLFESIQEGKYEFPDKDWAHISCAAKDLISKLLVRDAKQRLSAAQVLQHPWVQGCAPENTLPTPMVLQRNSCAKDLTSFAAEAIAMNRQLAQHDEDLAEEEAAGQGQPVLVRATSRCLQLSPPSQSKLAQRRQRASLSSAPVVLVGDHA
Chain of Serine/threonine-protein kinase PLK1 (P53350 whole entry): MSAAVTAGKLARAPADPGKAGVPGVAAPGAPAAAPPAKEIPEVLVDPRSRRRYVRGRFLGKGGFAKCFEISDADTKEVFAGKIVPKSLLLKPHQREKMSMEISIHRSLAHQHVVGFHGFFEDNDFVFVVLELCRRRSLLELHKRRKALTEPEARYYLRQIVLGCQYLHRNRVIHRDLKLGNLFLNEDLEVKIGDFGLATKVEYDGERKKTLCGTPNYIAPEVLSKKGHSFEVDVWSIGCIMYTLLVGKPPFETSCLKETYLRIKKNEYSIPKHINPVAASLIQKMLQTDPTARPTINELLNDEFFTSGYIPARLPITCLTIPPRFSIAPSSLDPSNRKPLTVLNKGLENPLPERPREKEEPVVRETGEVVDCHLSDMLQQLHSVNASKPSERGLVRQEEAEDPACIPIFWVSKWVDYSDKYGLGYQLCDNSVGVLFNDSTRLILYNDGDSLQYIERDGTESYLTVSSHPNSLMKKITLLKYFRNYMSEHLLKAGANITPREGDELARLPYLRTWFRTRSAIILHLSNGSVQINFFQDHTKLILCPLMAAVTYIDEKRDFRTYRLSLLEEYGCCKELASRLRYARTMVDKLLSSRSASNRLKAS
Chain of Serine/threonine-protein kinase 26 (Q9P289 whole entry): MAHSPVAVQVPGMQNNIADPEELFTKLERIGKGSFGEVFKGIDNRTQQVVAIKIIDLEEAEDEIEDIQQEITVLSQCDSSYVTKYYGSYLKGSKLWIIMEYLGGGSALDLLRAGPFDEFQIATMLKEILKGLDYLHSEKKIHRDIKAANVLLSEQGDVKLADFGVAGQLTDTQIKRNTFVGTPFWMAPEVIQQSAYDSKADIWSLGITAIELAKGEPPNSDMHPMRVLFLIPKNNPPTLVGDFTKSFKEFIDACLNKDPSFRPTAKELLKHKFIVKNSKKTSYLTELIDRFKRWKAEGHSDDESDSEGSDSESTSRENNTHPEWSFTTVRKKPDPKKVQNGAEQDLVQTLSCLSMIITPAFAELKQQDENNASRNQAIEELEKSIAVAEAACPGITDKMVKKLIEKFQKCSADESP
Chain of CDC7/DBF4 (Cell division cycle 7-related protein kinase/Activator of S phase kinase) (Q9UBU7 whole entry): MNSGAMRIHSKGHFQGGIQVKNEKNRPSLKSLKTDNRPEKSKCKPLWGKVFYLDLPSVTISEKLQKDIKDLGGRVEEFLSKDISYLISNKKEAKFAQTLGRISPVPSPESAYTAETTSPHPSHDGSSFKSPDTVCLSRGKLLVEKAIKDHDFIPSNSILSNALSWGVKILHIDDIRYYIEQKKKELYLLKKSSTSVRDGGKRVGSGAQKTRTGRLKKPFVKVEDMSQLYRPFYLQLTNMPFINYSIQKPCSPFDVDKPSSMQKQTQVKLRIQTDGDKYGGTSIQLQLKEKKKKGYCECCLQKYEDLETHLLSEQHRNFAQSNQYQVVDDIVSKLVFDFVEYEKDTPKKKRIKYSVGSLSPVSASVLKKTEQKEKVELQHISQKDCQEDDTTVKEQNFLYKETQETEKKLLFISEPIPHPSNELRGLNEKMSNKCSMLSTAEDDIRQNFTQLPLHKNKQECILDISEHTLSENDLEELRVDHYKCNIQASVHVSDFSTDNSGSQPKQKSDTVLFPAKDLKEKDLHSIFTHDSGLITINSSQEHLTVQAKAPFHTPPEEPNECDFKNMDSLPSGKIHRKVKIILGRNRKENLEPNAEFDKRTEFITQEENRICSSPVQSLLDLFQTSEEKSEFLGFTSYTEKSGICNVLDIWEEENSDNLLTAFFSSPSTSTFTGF
Chain of CDC7/DBF4 (Cell division cycle 7-related protein kinase/Activator of S phase kinase) (O00311 whole entry): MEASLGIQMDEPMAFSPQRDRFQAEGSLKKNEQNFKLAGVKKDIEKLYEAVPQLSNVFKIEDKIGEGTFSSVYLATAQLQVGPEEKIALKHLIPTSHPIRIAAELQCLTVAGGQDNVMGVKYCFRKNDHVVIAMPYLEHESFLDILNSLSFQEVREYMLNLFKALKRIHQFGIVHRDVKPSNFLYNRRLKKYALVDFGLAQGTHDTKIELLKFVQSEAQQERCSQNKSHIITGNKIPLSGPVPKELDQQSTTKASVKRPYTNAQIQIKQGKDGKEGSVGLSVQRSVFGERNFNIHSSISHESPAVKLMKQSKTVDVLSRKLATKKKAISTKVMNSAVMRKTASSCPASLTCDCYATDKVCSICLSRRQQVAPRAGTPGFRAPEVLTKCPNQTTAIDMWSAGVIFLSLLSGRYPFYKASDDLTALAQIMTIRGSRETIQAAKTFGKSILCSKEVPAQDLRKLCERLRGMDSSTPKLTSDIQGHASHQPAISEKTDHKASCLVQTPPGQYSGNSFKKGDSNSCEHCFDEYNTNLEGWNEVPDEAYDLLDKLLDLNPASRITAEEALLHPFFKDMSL

IC50 (MDA-MB-435): 1960 nM
IC50 [2]: > 10 µM
IC50 (NCI-H929): 10 µM
AUC at 24 h [4]: 22.4 µM·h
IC50 [5]: > 10 µM
IC50 (NCI-H1975): 10 µM
IC50 [6]: > 10 µM
IC50 (SW48): 551 nM
IC50 (BT-474): 1160 nM
IC50 [8]: > 10 µM
IC50 (BT-549): 1050 nM
IC50 [10]: > 10 µM
IC50 (COLO 205): 592 nM
IC50 [11]: > 10 µM
IC50 [13]: > 10 µM
IC50 [15]: > 10 µM
IC50 [16]: > 10 µM
IC50 (MV4-11): 1140 nM
IC50 (SK-MEL-5): 4.49 µM
IC50 (Casein kinase 2): 5.7 µM
IC50 (ACHN): 15 nM
IC50 (OVCAR-3): 6.2 µM
SMILES: CCc1cccc(CC)c1NC(=O)c1nn(C)c2c1CCc1cnc(Nc3ccc(C(=O)NC4CCN(C)CC4)cc3OC(F)(F)F)nc1-2
IC50 (C-33-A): 3.01 µM
IC50 (SR): 6.96 µM
inhibition (HeLa [1]): Active
IC50 (IGROV-1): 1150 nM
IC50 [3]: 8.56 µM
IC50 (TK-10): 1540 nM
Activity (A2780 [7]): Active
IC50 (SN12C): 1220 nM
inhibition (HeLa [9]): Active
IC50 (LP-1): 3.48 µM
IC50 (A498): 1710 nM
IC50 (MeWo): 3.26 µM
Activity (U2OS [12]): Active
Activity (U2OS [14]): Active
IC50 (LS174T): 1940 nM
IC50 (NCI/ADR-RES): 2480 nM
IC50 (SNB-75): 2200 nM
IC50 [17]: 1490 nM
Activity (A2780 [18]): Active
Activity [19]: Non-Toxic

From ChEMBL document CHEMBL5705893, “Targeting the mitotic checkpoint for cancer therapy with NMS-P715, an inhibitor of MPS1 kinase” (Cancer Res, 2010)
